Reference: the METLIN SMRT retention time set (Domingo-Almenara et al. 2019)

Assay: gradient 5% acetonitrile 3 min, to 50% in 2 min, to 85% in 15 min, held 3 min, 100 µL/min
Conditions: column: Zorbax Extend-C18 2.1 x 50 mm; eluents: water / acetonitrile, 0.1% formic acid
How it was run: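 Over 3 months, pure standards in mixtures of ~100 molecules were run by HPLC coupled to a quadrupole time-of-flight mass spectrometer in positive and negative ionization mode. The column was a Zorbax Extend-C18 (2.1 × 50 mm, 1.8 μm) at 100 μL/min, eluted with water and acetonitrile each holding 0.1% formic acid, with 40 μL dead and 900 μL dwell volumes. Retention time was determined from adduct peaks chosen by software and checked manually.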

Structure (SMILES)	RP-LC retention time [s]
O=c1c2c(CO)c(-c3ccccc3)nn2ccn1CCc1ccccc1	926
CCN1CCCn2cc(S(=O)(=O)N3CCN(c4ccc(Cl)cc4)CC3)cc2C1=O	894
Cc1cc(C2CCCN2C(=O)Nc2ccccc2C(F)(F)F)on1 (configuration not stated)	812
CCCC(=O)NCCn1c(=O)n(Cc2ccc(C)cc2)c2cccnc21	759
CCC(C(=O)N1CCN(c2ccccn2)CC1)n1c2ccccc2c2cnn(C)c(=O)c21 (configuration not stated)	638
Cc1oc(C2CCN(C(=O)Nc3ccc(F)cc3)CC2)nc1C(=O)N1CCCC1	752
COc1ccc(-c2nsc(SCC(=O)N3CCCCCC3)n2)cc1	846
O=C(Cc1ccccc1)NC(c1ccccc1)c1ccc2cccnc2c1O (configuration not stated)	822
O=C(c1ccc(Cl)cc1)N1CCc2sc(C(=O)N3CCCC3)cc2C1	792
Cc1cc(C)nc(N2CCN(c3ccc(F)cc3)CC2)n1	876
O=c1c2sccc2n(Cc2nc(-c3ccc(Br)cc3)no2)c(=O)n1Cc1ccccc1	1200
Cc1ccccc1NC(=O)N1C[C@@H](F)C[C@H]1C(=O)N1CCc2ccccc2C1	780
Cc1n[nH]c(C)c1Sc1ccccc1[N+](=O)[O-]	739
CCOc1nc2ccccc2nc1N1CCCC(C(=O)NC(C)c2ccccc2)C1 (configuration not stated)	1120
COc1ccc(OC)c(C(C)NC(=O)C2CCCN(c3nccnc3Oc3ccccc3)C2)c1 (configuration not stated)	998
Cc1ccc(Nc2c(-c3ccc(N(C)C)cc3)nc3cnccn23)c(C)c1	962
Cc1ccc(-c2nccn3cc(C(=O)N4CCOCC4)nc23)cc1	748
O=C(CSc1ccc(N2CCOCC2)nn1)Nc1ccc(Cl)cc1	725
Cc1cccc(-c2noc(Cc3nc(-c4ccccc4)cs3)n2)c1	1260
COC[C@@H]1CN(S(=O)(=O)c2cccc(C#N)c2)C[C@H]1c1ccncc1	630
CCn1c(C)c(-c2nc(C3CC3)no2)c(S(=O)(=O)NCC2CCCO2)c1C (configuration not stated)	768

Structure (SMILES)	RP-LC retention time [s]
O=C(CCC1CCCC1)Nc1nc(-c2ccc(Cl)cc2)cs1	1290
CC1=NS(=O)(=O)N(C)C=C1C(=O)OCc1nc(Cc2ccccc2C)no1	987
CS(=O)(=O)N1CCCC(C(=O)NCCC2=CCCCC2)CCNC(=O)CC1 (configuration not stated)	690
O=C(NCc1ccccc1Cl)C1COCC(=O)N1Cc1ccccc1 (configuration not stated)	724
Cc1cc(C)nc(Nc2nc(C(=O)N3CCN(C(=O)c4ccco4)CC3)cs2)n1	665
CCCc1noc(-c2ccc3nnc(CC(=O)NC4CCCC4)n3c2)n1	922
Cc1ccc(NC(=O)N2CCCC(C)(C(=O)NCc3ccc(F)cc3)C2)c(C)c1 (configuration not stated)	949
CC1(C(=O)NCc2ccccc2)CCCN(C(=O)Nc2cccc(Cl)c2)C1 (configuration not stated)	966
CCCC(=O)N1CCc2c([nH]c3ccccc23)C1c1ccc(F)cc1 (configuration not stated)	698
COc1ccc(C)cc1NC(=O)C1CCN(C(=O)C(C)(C)C)CC1	784
Cc1cccc(N2CC(C(=O)NC3CCCC3)CC2=O)c1 (configuration not stated)	767
Cc1c(CN2CC(F)(F)C[C@H]2COc2ccncc2)cnn1C	502
COc1ccc(C2(C(=O)N3CCC4(CC3)CC(C)(O)CCO4)CC2)cc1 (configuration not stated)	707
O=S(=O)(c1ccc(-c2noc(-c3ccccc3F)n2)cc1)N1CCOCC1	1030
COc1ccc(OC)c(NC(=O)N2CCN(c3ccc(=O)n(-c4ccc(C)cc4)n3)CC2)c1	835
O=C1NCCOCCN(C(=O)c2nccc3ccccc23)[C@H]2CCC[C@@H]12	674
COCCn1cc2c3c(cccc31)CN(C(=O)Nc1cc(OC)cc(OC)c1)CC2	926
Cc1csc(-c2cc(S(=O)(=O)NCCN3CCC(C)CC3)cn2CC(=O)N2CCCCC2)n1	679
c1cc(-c2noc(C3CCCCC3)n2)cc(N2CCOCC2)n1	1010
CS(=O)(=O)N1CCC(C2CCN(Cc3ccccc3C#N)C2)CC1 (configuration not stated)	590
O=C(NC1CCc2ccccc21)C1CCN(C(=O)c2ncn3c2COC(c2ccccc2)C3)CC1 (configuration not stated)	809

Results, then the molecule that gave them:

RP-LC retention time [s]	Structure (SMILES)
720	Cc1ccc(NC(=O)Cc2nnc(-c3cnccn3)o2)c(Cl)c1
668	CCOC(=O)N1CCN(c2nnc(SCC(=O)NCc3ccco3)s2)CC1
1060	COC(=O)c1ccc(OC)c(Cn2cnc3c(-c4ccccc4C)csc3c2=O)c1
691	O=C1COc2c(CCNCCN(C(=O)CCNCCc3ccc(Cl)c(Cl)c3)C3CCCCC3)ccc(O)c2N1
583	O=C(NCc1ccncc1)C1=C2CCCN2c2ccc(F)cc2S1(=O)=O
600	COc1ccc(CNC(=S)Nc2ccc3nc(N4CCN(C)CC4)cc(C)c3c2)c(OC)c1
1230	Cc1ccc(Cl)cc1NC(=O)Cc1c(C)nn(-c2nc(-c3ccccc3)cs2)c1C
940	O=S(=O)(NC1CCCCC1)c1ccc(-c2nnc(C3CC3)o2)o1
738	Cc1ccc(S(=O)(=O)NCC2CN(C(C)C)CC23CCCCC3)c(C)c1 (configuration not stated)
997	O=C([C@@H]1C[C@H](F)CN1S(=O)(=O)c1ccc(F)c(Cl)c1)N1CCc2ccccc2C1
661	Cc1noc(COC2CCN(C(=O)CCc3c(C)noc3C)CC2)n1
717	O=C(c1ccncc1)N1CCN(C(=O)c2nnn3c2COC(c2ccc(Cl)cc2)C3)CC1 (configuration not stated)
1130	O=C(c1nnc(-c2ccc(S(=O)(=O)N3CCCC3)cc2)o1)N1CCC(Cc2ccccc2)CC1
888	Cc1nc(C2CC23CCN(S(=O)(=O)c2cccc(F)c2)CC3)no1 (configuration not stated)
711	Cc1ccccc1CN1CCCN(c2ncccc2-c2nc(C3CC3)no2)CC1
1020	Cc1cccc(-c2nc(C)c(CCNC(=O)C(=O)Nc3ccc([N+](=O)[O-])cc3)s2)c1
640	COc1ccc(NC(=O)NCCc2cn(C)c3ncccc23)c(OC)c1
609	Cc1cc(N2CCN(C)CC2)nc2ccc(NC(=O)Nc3ccc(Br)cc3)cc12
676	O=c1cc[nH]c2c(Cl)cccc12
823	CCOC(=O)c1cnn(-c2ccc(C(=O)NC(C)C)cc2)c1N
882	CCn1ncn2cc(S(=O)(=O)Nc3ccc(C)cc3)cc2c1=O
621	COc1ccc(-c2noc(CN3CCN(c4ccccn4)CC3)n2)cc1
624	COc1cc(C(=O)N2CCCN(c3cc(=O)n(C)c(=O)n3C)CC2)cc(OC)c1OC
642	O=C(CSc1nnc(N2CCN(C(=O)c3cccs3)CC2)s1)NCc1ccco1
580	Cc1noc2ncnc(NCCN(C)Cc3ccccc3)c12
